Values quoted from earlier work in PubChem BioAssay AID1259409 (Chemical Carcinogenesis Research Information System (CCRIS), 2018).

System: rodent chemically induced tumor inhibition, incidence and multiplicity
Assay: CCRIS tumor inhibitor studies

Compound: Nc1nc(-c2ccccc2)c(Br)c(=O)[nH]1
- tumour outcome (control, treated, inhibition, significance) (Carcinogen: N-[4-(5-NITRO-2-FURYL)-2-THIAZOLYL]FORMAMIDE, 24554-26-5, Dose [Inhibitor]: 200 MG/KG IN CARBOXYMETHYL-CELLULOSE, POLYSORBATE 80, NACL AND BENZYL ALCOHOL, 2/WK BEGINNING ON DAY 30 OF CARCINOGEN TR, Route [Inhibitor]: INTRAGASTRIC, Species: MOUSE, Strain/Sex: C3H/FEMALE, Target Tissue: Type of Lesion: BLADDER: TRANSITIONAL CELL CARCINOMA, Dose [Carcinogen]: 0.13% IN DIET FOR 192 D, Promoter: NONE USED): 24/39 (62%), 6/43 (14%), 77%, p=0.0001
- tumour outcome (control, treated, inhibition, significance) (Carcinogen: N-[4-(5-NITRO-2-FURYL)-2-THIAZOLYL]FORMAMIDE, 24554-26-5, Dose [Inhibitor]: 200 MG/KG IN CARBOXYMETHYL-CELLULOSE, POLYSORBATE 80, NACL AND BENZYL ALCOHOL, 2/WK BEGINNING ON DAY 30 OF CARCINOGEN TR, Route [Inhibitor]: INTRAPERITONEAL, Species: MOUSE, Strain/Sex: C3H/FEMALE, Target Tissue: Type of Lesion: BLADDER: TRANSITIONAL CELL CARCINOMA, Dose [Carcinogen]: 0.13% IN DIET FOR 192 D, Promoter: NONE USED): 18/22 (82%), 5/9 (56%), 32%, p<0.2
- tumour outcome (control, treated, inhibition, significance) (Carcinogen: N-[4-(5-NITRO-2-FURYL)-2-THIAZOLYL]FORMAMIDE, 24554-26-5, Dose [Inhibitor]: 200 MG/KG IN CARBOXYMETHYL-CELLULOSE, POLYSORBATE 80, NACL AND BENZYL ALCOHOL, 2/WK BEGINNING ON DAY 150 OF CARCINOGEN T, Route [Inhibitor]: INTRAPERITONEAL, Species: MOUSE, Strain/Sex: C3H/FEMALE, Target Tissue: Type of Lesion: BLADDER: TRANSITIONAL CELL CARCINOMA, Dose [Carcinogen]: 0.13% IN DIET FOR 192 D, Promoter: NONE USED): 18/22 (82%), 17/19 (89%), -8%, p=0.489

Compound: C=CC[C@@H]1/C=C(\C)C[C@H](C)C[C@H](OC)[C@H]2O[C@@](O)(C(=O)C(=O)N3CCCC[C@H]3C(=O)O[C@H](/C(C)=C/[C@@H]3CC[C@@H](O)[C@H](OC)C3)[C@H](C)[C@@H](O)CC1=O)[C@H](C)C[C@@H]2OC
- tumour outcome (control, treated, inhibition, significance) (Carcinogen: 7,12-DIMETHYLBENZ[A]ANTHRACENE : 57-97-6, Dose [Inhibitor]: 0, 1 UMOL APPLIED 5 MIN PRIOR TO EACH PROMOTER DOSE FOR 22 WK BEGINNING 10 D POST CARCINOGEN DOSE (STUDY DURATION: 23 WK, Route [Inhibitor]: DERMAL, Species: MOUSE, Strain/Sex: CD-1/FEMALE, Target Tissue: Type of Lesion: SKIN: PAPILLOMA, Dose [Carcinogen]: 200 NMOL ONCE, Promoter: 12-O-TETRADECANOYLPHORBOL-13-ACETATE, 16561-29-8): 100%, 15%, 85%, not calculated
- tumour outcome (control, treated, inhibition, significance) (Carcinogen: 7,12-DIMETHYLBENZ[A]ANTHRACENE, 57-97-6, Dose [Inhibitor]: 0, 0.1 UMOL APPLIED 15 MIN PRIOR TO EACH PROMOTER DOSE FOR 22 WK BEGINNING 10 D POST CARCINOGEN DOSE (STUDY DURATION: 23, Route [Inhibitor]: DERMAL, Species: (20,20)/(20,20), Strain/Sex: CD-1/FEMALE, Target Tissue: Type of Lesion: SKIN: PAPILLOMA, Dose [Carcinogen]: 200 NMOL ONCE, Promoter: 12-O-TETRADECANOYLPHORBOL-13-ACETATE, 16561-29-8): 100%, 38%, 62%, not calculated

Compound: C#CCCc1ccccc1
- tumour outcome (control, treated, inhibition, significance) (Carcinogen: 4-(METHYLNITROSAMINO)-1-(3-PYRIDYL)-1-BUTANONE, 64091-91-4, Dose [Inhibitor]: 0, 5 UMOL IN 0.1 ML CORN OIL ONCE 2 HR PRIOR TO CARCINOGEN DOSE (STUDY DURATION: 16 WK), Route [Inhibitor]: GAVAGE, Species: MOUSE, Strain/Sex: STRAIN-A/FEMALE, Target Tissue: Type of Lesion: LUNG: ADENOMA, Dose [Carcinogen]: 10 UMOL IN 0.1 ML SALINE ONCE, Promoter: NONE USED): 100%, 60%, 40%, p<0.01

Compound: CCCCCCCCCCCCCCCCCCCCCC(O)CC(O)CCCCC (stereo not given)
- tumour outcome (control, treated, inhibition, significance) (Carcinogen: 7,12-DIMETHYLBENZ[A]ANTHRACENE, 57-97-6, Dose [Inhibitor]: 0, 2 UMOL APPLIED 30 MIN PRIOR TO EACH PROMOTER DOSE 2/WK FOR 20 WK BEGINNING 7 D POST CARCINOGEN DOSE (STUDY DURATION:, Route [Inhibitor]: DERMAL, Species: MOUSE, Strain/Sex: ICR/FEMALE, Target Tissue: Type of Lesion: SKIN: PAPILLOMA, Dose [Carcinogen]: 50 UG IN 100 µL ACETONE ONCE, Promoter: 12-O-TETRADECANOLYPHORBOL-13-ACETATE, 16561-29-8): 93%, 20%, 78%, not significant

Compound: C[C@]12CCC(=O)C(O)=C1CC[C@@H]1[C@@H]2CC[C@]2(C)C(=O)CC[C@@H]12
- tumour outcome (control, treated, inhibition, significance) (Carcinogen: METHYLNITROSOUREA, 684-93-5, Dose [Inhibitor]: 0, 6 MG/D 7 D/WK FOR DURATION OF STUDY BEGINNING 1 WK PRIOR TO CARCINOGEN DOSE (STUDY DURATION: 107 D), Route [Inhibitor]: GAVAGE, Species: RAT, Strain/Sex: SPRAGUE-DAWLEY/FEMALE, Target Tissue: Type of Lesion: MAMMARY GLAND: TUMOR, Dose [Carcinogen]: 50 MG/KG BW ONCE, Promoter: NONE USED): 100%, 95%, 5%, not significant
- tumour outcome (control, treated, inhibition, significance) (Carcinogen: METHYLNITROSOUREA, 684-93-5, Dose [Inhibitor]: 0, 15 MG/D 7 D/WK FOR DURATION OF STUDY BEGINNING 1 WK PRIOR TO CARCINOGEN DOSE (STUDY DURATION: 107 D), Route [Inhibitor]: GAVAGE, Species: RAT, Strain/Sex: SPRAGUE-DAWLEY/FEMALE, Target Tissue: Type of Lesion: MAMMARY GLAND: TUMOR, Dose [Carcinogen]: 50 MG/KG BW ONCE, Promoter: NONE USED): 100%, 100%, 0%, not significant

Compound: O=C1N[C@H](C(=O)O)CS1
- tumour outcome (control, treated, inhibition, significance) (Carcinogen: DIETHYLNITROSAMINE, 55-18-5, Dose [Inhibitor]: 0, 600 MG/KG BW BY INTRAPERITONEAL INJECTION ON DAYS 13, 14 AND 15 OF AGE THEN 4 G/KG DIET FROM 21 TO 161 DAYS OF AGE (S, Route [Inhibitor]: INTRAPERITONEAL, ORAL, Species: MOUSE, Strain/Sex: C3H/MALE, Target Tissue: Type of Lesion: LIVER: ADENOMA, Dose [Carcinogen]: 4 MG/KG IN TRICAPRYLIN ONCE ON DAY 15 OF AGE, Promoter: NONE USED): 100%, 100%, 0%, not significant

Compound: CC(C)(C)NC(=O)[C@H]1CC[C@H]2[C@@H]3CC[C@H]4NC(=O)C=C[C@]4(C)[C@H]3CC[C@]12C
- tumour outcome (control, treated, inhibition, significance) (Carcinogen: N-BUTYL-N-(4-HYDROXYBUTYL)NITROSAMINE, 3817-11-6, Dose [Inhibitor]: 0, 2 MG/KG 2/WK FOR 11 WK BEGINNING POST CARCINOGEN TREATMENT (STUDY DURATION: 21WK), Route [Inhibitor]: ORAL, Species: RAT, Strain/Sex: WISTAR/MALE, Target Tissue: Type of Lesion: URINARY BLADDER: CARCINOMA, Dose [Carcinogen]: 0.05% IN DRINKING WATER FOR 10 WK, Promoter: NONE USED): 15/17 (88%), 12/17 (71%), 19%, not significant
- tumour outcome (control, treated, inhibition, significance) (Carcinogen: N-BUTYL-N-(4-HYDROXYBUTYL)NITROSAMINE, 3817-11-6, Dose [Inhibitor]: 0, 2 MG/KG 2/WK FOR 13 WK BEGINNING POST CARCINOGEN TREATMENT (STUDY DURATION: 20WK), Route [Inhibitor]: ORAL, Species: RAT, Strain/Sex: WISTAR/MALE, Target Tissue: Type of Lesion: URINARY BLADDER: CARCINOMA, Dose [Carcinogen]: 0.05% IN DRINKING WATER FOR 7 WK, Promoter: NONE USED): 25/39 (64%), 9/20 (45%), 30%, not significant
- tumour outcome (control, treated, inhibition, significance) (Carcinogen: N-BUTYL-N-(4-HYDROXYBUTYL)NITROSAMINE, 3817-11-6, Dose [Inhibitor]: 0, 4 MG/KG 2/WK FOR 13 WK BEGINNING POST CARCINOGEN TREATMENT (STUDY DURATION: 20 WK), Route [Inhibitor]: ORAL, Species: RAT, Strain/Sex: WISTAR/MALE, Target Tissue: Type of Lesion: URINARY BLADDER: CARCINOMA, Dose [Carcinogen]: 0.05% IN DRINKING WATER FOR 7 WK, Promoter: NONE USED): 25/39 (64%), 9/20 (45%), 30%, not significant
- tumour outcome (control, treated, inhibition, significance) (Carcinogen: N-BUTYL-N-(4-HYDROXYBUTYL)NITROSAMINE, 3817-11-6, Dose [Inhibitor]: 0, 8 MG/KG 2/WK FOR 13 WK BEGINNING POST CARCINOGEN TREATMENT (STUDY DURATION: 20 WK), Route [Inhibitor]: ORAL, Species: RAT, Strain/Sex: WISTAR/MALE, Target Tissue: Type of Lesion: URINARY BLADDER : CARCINOMA, Dose [Carcinogen]: 0.05% IN DRINKING WATER FOR 7 WK, Promoter: NONE USED): 25/39 (64%), 8/20 (40%), 38%, not significant
- tumour outcome (control, treated, inhibition, significance) (Carcinogen: N-METHYL-N-NITROSOUREA, 684-93-5, Dose [Inhibitor]: 0.09 MG/200 G BW/D FOR 2 MO BEGINNING 9.5 MO POST-CARCINOGEN DOSE (STUDY DURATION: 11.5 MO), Route [Inhibitor]: GAVAGE, Species: RAT, Strain/Sex: WISTAR/MALE, Target Tissue: Type of Lesion: PROSTATE: ADENOCARCINOMA, Dose [Carcinogen]: 35 MG/KG BW ONCE AT INITIATION OF STUDY, Promoter: TESTOSTERONE PROPIONATE, 57-85-2): 9/14 (64%), 1/10 (10%), 84%, not determined
